# Assay results from patent EP4596561A1, “PHOSPHORUS-CONTAINING COMPOUND, PHARMACEUTICAL COMPOSITION AND USE THEREOF” (Suzhou Genhouse Bio Co., Ltd., priority 2022, dated 2024).
# Where two headings read alike, the source gives them in different places.
# How the values were obtained:
# [1] = Saturated solubility in FaSSIF solution; type: physicochemical; details: room temperature, stirred overnight
# Procedure: Efficacy Experimental Example 9: Test of Saturated Solubility of Samples in FaSSIF Solution
# About 0.21 g of sodium hydroxide, about 2.24 g of sodium dihydrogen phosphate dihydrate, and 3.09 g of sodium chloride were weighed out and dissolved in 500 mL of water, and after dissolution, the pH was adjusted to 6.5 with 1 N sodium hydroxide or 1 N hydrochloric acid.
# 112 mg of FaSSIF solid was weighed out and placed in a 50 mL volumetric flask, and the buffer described above was added for dissolution. The resulting solution was diluted to volume, mixed well, and left to stand at room temperature for 2 h or more.
# Test sample: About 1 mg of the test sample was taken, and 1 mL of FaSSIF solution was added. The mixture was stirred at room temperature overnight and centrifuged, and the supernatant was collected and injected for analysis.
# Reference sample solution: About 1.5 mg of the test sample was precisely weighed out and placed in a 50 mL volumetric flask, and DMF was added for dissolution. The resulting solution was diluted to volume and mixed well.
# The peak of the main component of the reference sample and the peak of the test sample with the same retention time were integrated, and the concentration thereof in the FaSSIF solution was calculated according to the external standard method.
# [2] = tested on: NCI-H2452 (NF2 wide-type); experiment: Inhibition of cell proliferation (CellTiter-Lumi); type: cell-based; details: Homo sapiens, 72 h + another 72 h treatment
# Procedure: (§1) NCI-H2052 (NF2 mutant), NCI-H226 (NF2 mutant), NCI-H2452 (NF2 wide-type), NCI-H28 (NF2 wide-type), and MSTO-211H (NF2 wide-type) cells were cultured in RPMI 1640 complete media.
# (§2) The normally growing cells described above were digested with a trypsin cell-digesting solution, centrifuged, counted, and then plated in a 96-well plate at a density of 1000 cells per well. Administration was performed 24 h after the cell plating. Inhibitors at different concentration gradients were added at 10 µL per well, and three replicate wells were set for each concentration point. The starting concentration was 20 µM and diluted 8 times with a 4-fold gradient. A corresponding negative control group treated with 0.1% DMSO was also set up. After 72 h of drug treatment, the cell culture plate to be tested was taken out of the incubator. The culture medium in the 96-well plate was pipetted, and 190 µL of fresh RPMI 1640 complete medium was added. Another administration was performed, and the cells were cultured for another 72 h. The 96-well plate was taken out and allowed to equilibrate at room temperature for 10 min. […] After shaking for two minutes, the mixture was reacted at room temperature for 10 min. Then, 150 µL of liquid was pipetted from the transparent 96-well plate and transferred to a white 96-well plate for chemiluminescence reading. The background value was subtracted from the value for each well to calculate the cell survival rate. Survival rate (%) = […]. Sample is the chemiluminescence of the drug-treated group, and Vehicle is the […] of the DMSO control group. A sigmoidal dose-survival rate curve was plotted using a non-linear regression model in the GraphPad Prism 7.0 software, and the IC50 values or GI50 values were calculated.
# NCI-H28 (NF2 wide-type) = experiment: Inhibition of cell proliferation (CellTiter-Lumi); type: cell-based; details: Homo sapiens, 72 h + another 72 h treatment
# Procedure: as §1, §2
# [3] = tested on: YAP-TEAD transcription complex; experiment: YAP-TEAD reporter gene assay (dual luciferase, stably transfected 293T cells); type: cell-based; details: Homo sapiens, HEK-293T
# Procedure: YAP-TEAD reporter gene The YAP-TEAD reporter gene assay was performed as follows. Firstly, the 8xGTIIC promoter sequence ([…] GTACTGTTGGTAAA) was constructed into a pGL4.20(luc2-Puro) plasmid, and the TK promoter ([…]) unrelated to the hippo pathway was constructed into a pGL4.78(hRlucCP/Hygro) plasmid, thereby constructing stably transfected 293T cells that can stably and continuously express the transcriptional activity of the YAP-TEAD transcription complex. After selection and identification of individual clones, the clones were grown and maintained in a DMEM medium containing 10% fetal bovine serum, penicillin-streptomycin solution, 1 µg/mL puromycin, and 150 µg/mL hygromycin. To perform reporter gene assays with the compounds to be tested, the well-growing cells described above were plated in a 384-well plate at a cell density of 3000 cells per well, with 90 µL per well. The periphery was sealed with an appropriate amount of PBS to prevent evaporation of water from the peripheral wells. Administration was performed on the next day after the cell plating. The test compounds were added at different concentration gradients, and three replicate wells were set for each concentration point. The compound concentration started at 5 µM and was diluted seven times with a 5-fold gradient. A corresponding negative control group treated with DMSO was also set up. After 24 h of drug treatment, the detection reagents were prepared first. The Dual-Lumi™ Firefly luciferase detection reagent and Dual-Lumi™ Renilla luciferase detection buffer were dissolved and brought to room temperature. […]. According to the amount of 100 µL of Dual-Lumi™ Renilla luciferase detection working solution required for the detection of each sample, an appropriate amount of Dual-Lumi™ Renilla luciferase detection working solution was prepared. […]. The cell culture plate was taken out and allowed to equilibrate at room temperature for 10 min (usually no more than 30 min). Then, 100 µL of Dual-Lumi™ Firefly luciferase detection reagent was added to each well of a 96-well plate (25 µL per well for the 384-well plate), and the mixture was mixed well. The mixture was then incubated at room temperature (about 25 °C) for 10 min to stabilize the luminescent signal, and then chemiluminescence was detected using a multimode microplate reader with a chemiluminescence detection function. Subsequently, the detection of Renilla luciferase began. Firstly, 100 µL of Dual-Lumi™ Renilla luciferase detection working solution was added to each well of a […] (25 µL per well for the 384-well plate), and the mixture was mixed well. The mixture was then incubated at room temperature (about 25 °C) for 10 min to stabilize the luminescent signal. Finally, chemiluminescence was detected using a multimode microplate reader with a chemiluminescence detection function. The obtained data were analyzed using GraphPad Prism 7.0 software. A sigmoidal dose-survival rate curve was plotted using a non-linear regression model, and the IC50 values were calculated.
# in vivo = details: mouse, plasma, po, 200 mg/kg
# Procedure: After adding 5% DMSO, the mixture was vortexed. 15% HS15 was then added, and the mixture was vortexed again. Finally, a 10% aqueous cyclodextrin solution was added, and the resulting mixture was vortexed to prepare the final concentration solution or suspension.
# [4] = Pharmacokinetic test in mice (low dose); type: in vivo, Balb/c mice; details: Balb/c, mouse, in vivo
# Procedure: The compounds of the present disclosure were administered to Balb/c mice by single intravenous injection and oral gavage, and the plasma of the mice at each time point was collected. The concentration of the compounds to be tested in BALB/C plasma was detected using the LC-MS/MS analysis method, and pharmacokinetic analysis was performed.
# The mixture was vortexed, shaken, and ultrasonicated. The remaining volume of 25% sulfobutylether-β-cyclodextrin (sterilized) was added to prepare the final concentration solution or suspension.
# Intravenous injection formulations will be directly administered in animal experiments without filtration. The IV drug preparation vials were disinfected in an infrared sterilization cabinet one day in advance.
# Intravenous injection: Administration was performed via the tail vein. After the needle was inserted, the syringe was slowly […].
# Gavage: Gavage needle and syringe of an appropriate type were selected. The gavage needle was inserted from the root of the tongue into the esophagus until it reached near the cardia of the stomach, then the drug formulation was injected, and the gavage needle was withdrawn. When disposable plastic gavage needles were used, one needle was used for each group.
# At each time point, 60 µL of whole blood was collected from the submandibular vein or tail vein (except for the IV group). The blood sample was added to a pre-cooled anticoagulant blood collection tube containing anticoagulant EDTA-K2 (1 µL, 15% EDTA-K2 solution), placed on wet ice, and centrifuged (3000 g, 4 °C, 10 min) within 1 h. The plasma was immediately collected after centrifugation, transferred to an EP tube, and stored at -90 °C to -60 °C.
# Plasma concentration detection: A developed LC-MS/MS method was used to detect the compounds in plasma.
# The plasma concentration-time data were analyzed using a non-compartmental model in the Phoenix® WinNonlin® (Version 8.2, Pharsight, Mountain View, CA).
# [5] = 293T reporter cells, 24 h of drug treatment, read-out: IC50
Compound,IC50 [2],IC50 (NCI-H28 (NF2 wide-type)),"IC50 [3, 5]",further results
"CNS(=O)(=O)c1cnc(Oc2ccc(C(F)(F)F)cc2)c(-c2cn3c(n2)CCC3)c1 [Comparative compound B4, reference compound]",,,,FaSSIF(pH = 6.5) [1]: 36.2 ug/mL
CCc1ccc(Oc2cccc3cc(P(C)(C)=O)ccc23)cc1 [Example 25],> 20000 nM,> 20000 nM,,
"CNS(=O)(=O)c1ccc(Nc2ccc(C(F)(F)F)cc2)c(-c2cn(C)cn2)c1 [Comparative compound B3, reference compound]",,,,AUC(0-t) (in vivo): 1040 µM·h; FaSSIF(pH = 6.5) [1]: 14.0 ug/mL
"CNS(=O)(=O)c1ccc2c(Oc3ccc(C(F)(F)F)cc3)cccc2c1 [Comparative compound B2, reference compound]",,,,"AUC(0-t) (in vivo): 902 µM·h; bioavailability [4]: 87.5%; AUC(0-t) ([4]; iv, 2 mg/kg): 8.75 µM·h; clearance ([4]; iv, 2 mg/kg): 6.03 mL/min/kg; half-life ([4]; iv, 2 mg/kg): 19.6 h; AUC(0-t) ([4]; po, 10 mg/kg): 52.8 µM·h; Cmax ([4]; po, 10 mg/kg): 4.21 µM; half-life ([4]; po, 10 mg/kg): 9.3 h; FaSSIF(pH = 6.5) [1]: 16.4 ug/mL"
CP(C)(=O)c1ccc2c(Oc3ccc(C4CC4)cc3)cccc2c1 [Example 26],> 5000 nM,> 5000 nM,,
CP(C)(=O)c1cnc(Nc2ccc(C(F)(F)F)cc2)c(-c2ccccn2)c1 [Example 33],,,,IC50 ([3]; 24 h): 19.8 nM
Cn1cnc(-c2cc(P(C)(C)=O)ccc2Nc2ccc(Cl)cc2)c1 [Example 32],,,,IC50 ([3]; 24 h): 78.5 nM
CP(C)(=O)c1ccc2c(Oc3ccc(Cl)cc3)cccc2c1 [Example 28],> 50000 nM,> 20000 nM,283 nM,

# The next lines start with results.
IC50 [2],IC50 (NCI-H28 (NF2 wide-type)),"IC50 [3, 5]",Compound,further results
> 20000 nM,> 20000 nM,39.2 nM,Cn1cnc(-c2cc(P(C)(C)=O)cnc2Nc2ccc(S(F)(F)(F)(F)F)cc2)c1 [Example 36],
,,61.9 nM,Cn1cnc(-c2cc(P(C)(C)=O)ccc2Nc2ccc(S(F)(F)(F)(F)F)cc2)c1 [Example 31],
> 1250 nM,> 1250 nM,32.4 nM,CP(C)(=O)c1cnc(Nc2ccc3c(c2)OC(F)(F)O3)c(-c2cn3c(n2)CCC3)c1 [Example 39],
